{"source": "patent US9669054B2", "about": "“pH buffered bioactive glass, and its preparation process and use” (CHANGZHOU BIO-SHENG TECHNOLOGY CO., LTD., priority 2011, dated 2017)", "type_in_all_cases": "in vivo", "key": {"[1]": {"test_system": "acetic-acid induced chronic gastric ulcers", "assay": "Treatment of acetic-acid induced chronic gastric ulcers in rats", "experimental": "After fasting for 24 hours, the rats were anesthetized and disinfected in a conventional way, and then was cut from the xiphoid down along the medioventral line to about 2 cm, so as to remove the stomach from the enterocoelia; 5 μl of 100% glacial acetic acid was injected by using a microsyringe into a position close to the muscular layer below the anterior wall serosa of the gastric antrum; when a translucent white spot with a diameter of about 3 mm appeared, the stomach was given back to the enterocoelia, and was enveloped in omentum majus; then, peritoneum, muscular layer and skin were sutured in this order.\nEach drug was divided into 5 groups according to the administration method described above, namely, a model group and four groups with different doses of drugs. Each group of the drugs was administered to 6 to 8 […]. At the third day after the surgery, the treatment started by intragastrically administering drugs to the rats once a day for 7 days, wherein normal saline was administered in the same volume to the rats in the model group instead. […] The following indices were measured:\n(1) ulcer index: the longest diameter in the length direction of an ulcer area and the longest diameter in the width direction perpendicular to the longest diameter in the length direction of the ulcer area were measured by a vernier caliper, and the product of the above two diameters is the ulcer index.\n(2) ulcer inhibition rate: it represents the inhibition effect of a drug on the ulcer index."}, "[2]": {"test_system": "IL-1β-induced recurrence of acetic-acid induced chronic gastric ulcers", "assay": "Prevention of IL-1β-induced recurrence of acetic-acid induced chronic gastric ulcers in rats", "settings": "10 mg/kg/d intragastric for 7 days before IL-1β", "experimental": "In this study and experiment, we evaluated the preventive effect of the tested drug (namely, the bioactive glass) on the recurrence of chronic gastric ulcers by adopting the rat model of IL-1β-induced recurrence of acetic-acid induced chronic gastric ulcer, and using omeprazole as the control.\nThe model of acetic-acid induced chronic gastric ulcer was first copied here: After fasting for 24 hours, the rats were anesthetized and disinfected in a conventional way, and then was cut from the xiphoid down along the medioventral line to about 2 cm, so as to remove the stomach from the enterocoelia; 5 μl of 100% glacial acetic acid was injected by using a microsyringe into a position close to the muscular layer below the anterior wall serosa of the gastric antrum; when a translucent white spot with a diameter of about 3 mm appeared, the stomach was given back to the enterocoelia, and was enveloped in omentum majus; then, peritoneum, muscular layer and skin were sutured in this order. 90 days after the injection of acetic acid, a model of gastric ulcer recurrence was copied by intraperitoneal injection of 1 μg/kg of IL-1β according to the method described in “Role of neutrophils in a rat model of gastric ulcer recurrence caused by interleukin-1 beta”, T. Watanabe, T. Arakawa, T. Fukuda, K. Higuchi, and K. Kobayashi, Am J Pathol, 1997, 150:971-979 . […]"}, "[3]": {"test_system": "mouse stress-induced gastric ulcers", "assay": "Comparative experiment on inhibition of stress-induced gastric ulcers versus representative drugs", "settings": "mice, intragastric, stress in water 15 hours", "quoted_text": "The mice were divided into four groups, to which deionized water (the solvent control group), and three kinds of Weibeisheng with pH 7, 8 and 9 at a dose of 1 g/kg were respectively intragastrically administrated. Two hours later, the mice were subjected to stress in water at 21±1° C. for 15 hours, and were administered again two hours before the end of the stress. Then the animals were killed and autopsy was performed. […]\nTwo hours later, the mice were subjected to stress in water at 21±1° C. for 15 hours (the drug was administered to the Weibeisheng group again two hours before the end of stress). […] After the ulcer index of each group was scored, the inhibition effect of each drug on mouse stress-induced gastric ulcers (namely, the maximum inhibition rate Emax) was calculated.\nThe ratios used in these two Experiment Examples were determined according to the weight of the mouse and the amount of intragastric administration."}}, "data": [{"smiles": "COc1ccc2[nH]c([S+]([O-])Cc3ncc(C)c(OC)c3C)nc2c1", "note": "(centres unmarked) [Omeprazole, omeprazole]", "values": [{"measurement": "ED50", "setting": "[1]; Rattus norvegicus, po, 168 h, rats, intragastric once a day for 7 days, ulcer inhibition rate, read-out: ED50 (median effective dose)", "value": 1.3, "unit": "mg/kg"}, {"measurement": "median effective dose ED50 for treating chronic gastric ulcers", "setting": "[1]; chronic gastric ulcers, as stated in summary/description", "value": 1.3, "unit": "mg/kg/day"}, {"measurement": "Emax (maximum inhibition rate)", "setting": "[1]; rats, intragastric once a day for 7 days", "value": "66.2 ± 7.4", "unit": "%"}, {"measurement": "preventive effect on the recurrence of chronic gastric ulcers (inhibition rate)", "setting": "[2]", "value": 50, "unit": "%"}, {"measurement": "Emax (% inhibition rate)", "setting": "[3]", "value": 64.8, "unit": "% inhibition rate"}]}]}
